Where a name gives a salt, the structure may show the parent alone.
What was measured:
anti-thyroxine [1] = assay: Fluorescence polarization kinetic assay, F-thyroxine/anti-thyroxine system; format: binding; details: PBS with 4.75% 2-propanol, BSA 0.1 μM, Anti-Thyroxine 1:300
anti-thyroxine [2] = assay: as above; format: binding; details: for Rate of the antibody reaction with increasing concentrations of additive: PBS with 5% 2-propanol, BSA 0.1 μM, Fluorescein-Thyroxine 1 nM, Anti-Thyroxine 1:300
Experimental: An initial stock solution of anti-thyroxine sera was prepared. In particular, 1 ml of polyclonal anti-thyroxine sera containing 10 mg/ml IgG (Sigma) was diluted 1:5 in PBS buffer, pH 7.5. The final concentration of IgG in the stock solution was about 2 mg/ml.
An initial stock solution of fluorescein-labeled analyte (F-thyroxine) was prepared. […] First, 5 mg (4×10^−6 moles) of F-thyroxine was diluted to 10 ml in PBS to get a 4.1×10^−4 M solution of F-thyroxine. This solution was then further diluted 100-fold in PBS. The final concentration of F-thyroxine in the stock solution was about 4.1×10^−6 M.
All steps are performed at ambient temperature. The total final reaction volume after all additions is 3030 μl. • 1. Add 20 μl or 0 μl (control) anti-sera stock solution to about 2980 μl of Buffer 1. • 2. Pipette the diluted anti-sera solution prepared in step 1 up and down from 1 to 10 seconds to thoroughly mix. • 3. Add between 0 and 20 μl thyroxine stock solution (e.g., 0, 0.5, 2.0, 5.0 and 20 μl) to the mixed anti-sera from step 2. • 4. Pipette the mixture formed in step 3 up and down for 1 to 10 seconds and then incubate for 30 to 300 seconds. • 5. Add 10 μl of the Fluorescein-labeled thyroxine stock solution to the incubated mixture from step 4. • 6. Pipette the mixture formed in step 5 up and down for 1 to 10 seconds and begin measuring polarization (P), Polarized Fluorescence Intensity Difference (V−H) or quenching (V+H total intensity) versus time for between 10 and 7200 seconds after end of mixing in a direct readout polarometer or between 0.1 and 7200 seconds after end of mixing with a stopped-flow polarometer. • 7. Determine the rate of reaction (initial rates) and plot versus amount of thyroxine stock solution added in step 3 to produce a standard curve. • 8. Against a standard curve, an unknown amount of thyroxine can be measured by comparison of initial rate measurement (speed of reaction) of unknown with the standard curve. […]

human sera = assay: Non-specific binding of F-thyroxine in presence of human sera; details: Buffer 2 (1.0 M sodium benzoate), 50 μl human sera, V−H over 10-600 s
Experimental: With reference to FIG. 2, experiments were performed to determine the effects of an additive on specific and non-specific binding. The additive used in the present example was sodium benzoate. The materials described in Example 1 and the measurement methodology described in Example 2 were used. In particular, 50 μl of human sera was added to 3000 μl of Buffer 2 or PBS at pH 7.5 (no additive control) and thoroughly mixed by pipetting for 1 to 10 seconds. To this was added 0 μl of unlabeled thyroxine and 0 μl, 20 μl or 50 μl of anti-sera stock solution. The mixture was thoroughly mixed by pipetting for 1 to 10 seconds. Then, 5 μl of the fluorescein-labeled thyroxine stock solution was added. This was followed by mixing for 1 to 10 seconds by pipetting. Then, d(V−H)/dt measurements were made versus time for between 10 and 600 seconds. This protocol was followed for Experiments 6-9 in Table 2.

serum components = assay: Initial non-specific binding between F-thyroxine and serum components (P at t=0); details: experiments 6-3 through 6-7: serum, increasing sodium benzoate; PBS with 10% 2-propanol
Experimental: The buffer and stock solutions described in Example 1 and the measurement methodology described in Example 2 were used.
• Fluorescein-Thyroxine (1 nM) • Anti-Thyroxine (1:300 dilution) • PBS with 10% 2-propanol • Benzoate in different concentrations • At t=0 s antibody was pipetted into the cuvette. • A 3 ml cuvette was used, the total volume in the cuvette was 2 ml. A small magnetic stirrer was used for mixing
In example 6, the reactions between F-Thyroxine and Anti-Thyroxine, which were carried out in the presence of serum under different reaction conditions, are compared (FIG. 4). There are seven different amounts of sodium benzoate, between 0 and 1.0 Molar in the cuvette. The reaction was performed in a phosphate buffered saline buffer containing 10% 2-propanol. The table in FIG. 4 lists the two important parameters.

anti-thyroxine [3] = assay: Fluorescence polarization kinetic assay, rhodamine-labeled thyroxine (ROX-T4)/anti-thyroxine system; format: binding; details: Rox-Thyroxine 1.5 nM, Anti-Thyroxine 1:300, PBS with 10% 2-propanol, serum 1:500
Experimental: The protocol used is described below. […] Use clean glassware, washed with isopropanol. • 2. Make a 0.5 M solution of sodium benzoate. • 3. […] This will be named BUFFER. • 4. […] The absorbance spectrum is measured using a UV-VIS spectrophotometer, 400 nm to 800 nm. This spectrum is used to define the absorbance of the background as zero and to control that it is actually zero. • 6. […] Measure the absorbance UV-VIS, 400 nm to 800 nm. […] Using a rotating polarometer with a 75 watt Xenon short-arc lamp. The rotating polarizer has three channels: Polarization (P), Total Intensity (V+H), and V−H. • 8. […] Measure P, V+H and V−H after short mixing and 30 second equilibration. […] Add 10 μl. Antibody solution (anti-thyroxine in PBS, dilution unknown, probably 5 mg in 1000 μl PBS and further diluted 1:10 in PBS). New volume is 3017 μl. Measure P, V+H and V−H after short mixing.

With `[Cl-].[Na+]` [sodium chloride] the “Rate of the antibody reaction with increasing concentrations of additive” value (anti-thyroxine [1]; Fluorescein-Thyroxine 1.5 nM) was “not substantially slowed”.
In the case of `O=C([O-])c1ccccc1.[K+]` [potassium benzoate], the “Rate of the antibody reaction with increasing concentrations of additive” value (anti-thyroxine [1]; Fluorescein-Thyroxine 1 nM) is reported as “substantially slowed”.
In the case of `Cc1ccc(S(=O)(=O)O)cc1.[Na]` [sodium p-tolulene sulfonate, sodium p-toluene sulfonate], the “Rate of the antibody reaction with increasing concentrations of additive” value (anti-thyroxine [2]) is reported as “substantially slowed”.
For `O=C([O-])c1ccccc1.[Na+]` [sodium benzoate], the “Reaction between F-thyroxine and its specific antibody capable of being followed (kinetic curve)” value (anti-thyroxine [2]; Buffer 1 (0.5 M sodium benzoate in PBS, pH 7.5) versus PBS) was “only capable of being followed when the reaction was performed in the presence of an additive”, the “Effect of additive on specific binding” value (anti-thyroxine [2]; Buffer 2 (1.0 M sodium benzoate), 50 μl human sera, 0/20/50 μl antiserum, V−H over 10-600 s) was “does not inhibit specific binding” and the “Rate of the antibody reaction with increasing concentrations of additive” value (anti-thyroxine [2]) was “substantially slowed”. For the same compound, the “Reaction rate relative to its value from zero additive agent” value (anti-thyroxine [2]; experiments 6-3 through 6-7: serum, increasing sodium benzoate, PBS with 10% 2-propanol) was “about 30%”, the “Effect of additive on non-specific binding” value (human sera) was “inhibits non-specific binding” and the “Polarization value before addition of antibody (t=0)” value (serum components) was 100 mP. For the same compound, the “Rate of the reaction with increasing concentrations of additive” value (anti-thyroxine [3]) was “substantially slowed”.
`O=C([O-])CCl.[Na+]` [sodium chloroacetate] was tested, and the “Rate of the antibody reaction with increasing concentrations of additive” value (anti-thyroxine [1]; Fluorescein-Thyroxine 1 nM) was “substantially slowed”.
With `N=C(N)N` [guanidine hydrochloride] the “Rate of the antibody reaction with increasing concentrations of additive” value (anti-thyroxine [2]) was “substantially slowed”.
With `O=C1CCC(=O)N1O` [N-hydroxysuccinimide] the “Rate of the antibody reaction with increasing concentrations of additive” value (anti-thyroxine [1]; Fluorescein-Thyroxine 1.5 nM) was “substantially slowed”.
For `O=C([O-])C(Cl)Cl.[Na+]` [sodium dichloroacetate], the “Rate of the antibody reaction with increasing concentrations of additive” value (anti-thyroxine [1]; Fluorescein-Thyroxine 1 nM) was “substantially slowed”.

Reference: patent US7993855B2, “Use of additives to lower the rate of a binding reaction” (Aokin AG, priority 2006, dated 2011)
